# Measurements taken from patent US5089623A, “Certain imidate insecticides” (Imperial Chemical Industries Plc, priority 1990, dated 1992).
# Assays:
# Assay type in all cases: in vivo
# [1] = test system: Cabbage Looper [Trichoplusia ni (Hubner)]; assay: Cabbage looper test (CL); conditions: second-instar larvae, 3-5 days, percent in solution
# [2] = test system: Tobacco Budworm [Heliothis virescens (Fabricius)]; assay: Tobacco budworm contact test (TBW-C); conditions: second-instar larvae, 5 days, percent in solution
# Procedure: (§1) The compounds in Tables 1 and 2 above were tested for insecticidal activity using the following testing procedures. LC50 values, based on the results of these tests and calculated according to dosage-mortality curves, are expressed in Table 3.
# Tobacco Budworm [Heliothis virescens (Fabricius)]
# (a) Contact: Test compounds were diluted in a 50-50 acetonewater solution. Cotton (Gossypium sp.) cotyledons were immersed in the test solutions for 2-3 seconds and placed on a wire screen to dry. The dried leaves were placed in petri dishes containing a moistened piece of filter paper and infested with 5 second-instar tobacco budworm larvae. The dishes were placed in a high humidity chamber for 5 days, and percent mortality of the larvae recorded. Test concentrations ranged from 0.1% downward. The LC-50 values are expressed below in Table 3 under the heading "TBW-C" in terms of percent of the test compound in the solution.
# [3] = test system: Tobacco Budworm [Heliothis virescens (Fabricius)] eggs; assay: Tobacco budworm egg test (TBW-E); conditions: percent in solution
# [4] = test system: Housefly [Musca domestica]; assay: Housefly insecticidal test (HF); conditions: per 25 female houseflies, 48 hours
# [5] = test system: Beet Armyworm (Spodoptera exigua); assay: Beet armyworm test (BAW); conditions: second-instar larvae, five days, percent in solution
# Procedure: as §1
# Beet Armyworm (Spodoptera exigua)
# Test compounds were diluted in a 50-50 acetone-water solution. Young leaves of sugar beets (Beta vulgaris) were immersed in the test solutions for 2-3 seconds and placed on a wire screen to dry. The dried leaves were placed in petri dishes containing a moistened filter paper and infested with five second-instar beet armyworm larvae. The dishes were placed in a high humidity chamber. Mortality of the larvae was recorded five days later. Test concentrations ranged from 0.1% downward. The LC-50 values are expressed below in Table 3 under the heading "BAW" in terms of percent of the test compound in solution.
# [6] = test system: Maize weevil [Sitophilus Zeamais (Motschulsky)]; assay: Maize weevil test (MW); conditions: adult weevils, treated corn seeds, 48 hours, percent in solution
# Procedure, shortened: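 Adult weevils (10) were placed with four corn seeds that had been dipped 2-3 s in compound dissolved in 50:50 acetone:water, then dried, and held at about 25° C. Mortality was scored at 48 h. LC50 was taken from dosage-mortality curves and expressed as percent compound in solution, from a 0.01% top concentration.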
# [7] = test system: Aster Leafhopper [Macrosteles fascifrens (Stal)]; assay: Aster leafhopper test (LH); conditions: adults/nymphs, 48 hours, percent in solution
SMILES,LC50 CL [1] [%],LC50 TBW C [2] [%],LC50 TBW E [3] [%],LC50 HF [4] [µg],LC50 BAW [5] [%],LC50 MW [6] [%],LC50 LH [7] [%]
CC(C)C(=Nc1ccc(F)c(Cl)c1F)OCc1cccc(Oc2ccccc2)c1 [Compound 332],0.00045,0.00075,0.015,7,0.0012,,
CC(C)C(=Nc1ccc(Cl)cc1)OCc1ccc(F)c(Oc2ccccc2)c1 [Compound 23],0.0005,,0.017,5,0.001,,
CC(C)C(=Nc1ccc(F)c(C(F)(F)F)c1)OCc1ccc(F)c(Oc2ccc(Cl)cc2)c1 [Compound 297],0.00027,0.00075,0.025,23,,0.0071,0.0001
CC(C)C(=Nc1ccc(F)c(Cl)c1)OCc1cccc(Oc2ccc(Cl)cc2)n1 [Compound 463],0.00009,,0.0075,8,0.0024,0.01,0.0003
CC(C)C(=Nc1cccc(C(F)(F)F)c1)OCc1cccc(Oc2ccccc2)c1 [Compound 67],0.001,,0.01,15,0.006,,0.00027
Cc1c(Cl)cccc1N=C(OCc1cccc(Oc2ccccc2)c1)C(Cl)Cl [Compound 97],0.002,0.004,0.04,10,0.01,,
CCOc1ccc(N=C(OCc2cccc(Oc3ccccc3)c2)C(Cl)Cl)cc1 [Compound 138],0.005,0.015,0.08,19,,> 0.01,> 0.05
CC(C)(C)C(=Nc1ccc(Cl)cc1)OCc1cccc(Oc2ccccc2)c1 [Compound 30],0.003,0.01,> 0.1,> 100,,> 0.01,> 0.05
Clc1ccccc1N=C(OCc1cccc(Oc2ccccc2)c1)C(Cl)Cl [Compound 34],0.015,0.01,> 0.1,> 100,0.015,,
CC(C)C(=Nc1ccc(C(F)(F)F)cc1)OCc1cccc(Oc2ccc(Cl)cc2)n1 [Compound 530],0.00027,0.00005,0.005,9.8,,> 0.01,0.05
CC(C)C(=Nc1ccc(F)cc1)OCc1cccc(Oc2ccccc2)c1 [Compound 46],0.003,,0.016,7,0.006,,0.002
CC(C)C(=Nc1ccc(F)c(F)c1)OCc1cccc(Oc2ccc(F)cc2)c1 [Compound 60],0.001,0.0009,0.017,8,,0.0075,0.002
CC(C)C(=Nc1ccc(Cl)c(Cl)c1)OCc1cccc(Oc2ccc(Cl)cc2)n1 [Compound 523],0.00015,0.0002,> 0.1,22,,> 0.01,> 0.05
CC(C)C(=Nc1cccc(Cl)c1)OCc1cccc(Oc2ccc(F)cc2)c1 [Compound 194],0.0005,0.0017,0.04,10,,> 0.01,0.0005
Cc1ccc(N=C(OCc2cccc(Oc3ccccc3)c2)C(Cl)Cl)cc1 [Compound 139],0.015,0.005,0.05,4.2,0.007,,
CC(C)C(=Nc1ccc(F)c(I)c1)OCc1ccc(F)c(Oc2ccc(Cl)cc2)c1 [Compound 326],0.00015,0.0005,0.03,25,0.004,,

SMILES,LC50 CL [1] [%],LC50 TBW C [2] [%],LC50 TBW E [3] [%],LC50 HF [4] [µg],LC50 BAW [5] [%],LC50 MW [6] [%],LC50 LH [7] [%]
CC(C)C(=Nc1cccc(C(F)(F)F)c1)OCc1cccc(Oc2ccc(F)cc2)c1 [Compound 202],0.00024,0.0007,> 0.1,18,,> 0.01,0.0003
CC(C)C(=Nc1ccc(Br)cc1)OCc1cccc(Oc2ccc(F)cc2)c1 [Compound 226],0.0005,0.001,0.1,16,,0.009,0.002
O=[N+]([O-])c1ccc(N=C(OCc2cccc(Oc3ccccc3)c2)C(Cl)Cl)cc1 [Compound 173],0.02,> 0.1,> 0.1,18,> 0.1,,
CC(C)C(=Nc1ccc(F)c(C(F)(F)F)c1)OCc1cccc(Oc2ccc(F)cc2)c1 [Compound 120],0.00015,0.0025,0.04,14,,> 0.01,0.0003
CC(C)C(=Nc1ccc(F)c(Cl)c1F)OCc1cccc(Oc2ccc(Cl)cc2)n1 [Compound 500],0.00009,0.00075,0.02,16,0.002,,
CC(C)C(=Nc1ccc(F)c(Cl)c1F)OCc1cccc(Oc2ccc(F)cc2)n1 [Compound 521],0.00005,0.0005,> 0.1,7.5,,0.01,0.05
CC(C)C(=Nc1ccc(F)c(Cl)c1)OCc1cccc(Oc2ccc(Br)cc2)c1 [Compound 238],0.0002,0.0004,0.05,25,,> 0.01,> 0.05
CC(C)C(=Nc1ccc(F)c(Cl)c1)OCc1cccc(Oc2ccc(C#N)cc2)c1 [Compound 196],0.0006,0.001,> 0.1,17,,> 0.01,> 0.05
O=[N+]([O-])c1cccc(N=C(OCc2cccc(Oc3ccccc3)c2)C(Cl)Cl)c1 [Compound 174],0.03,,> 0.1,17,0.1,,
CC(C)C(=Nc1cccc(Cl)c1)OCc1cccc(Oc2ccccc2)c1 [Compound 7],0.006,,0.009,8,0.006,,0.0002
CC(C)C(=Nc1ccc(Cl)c(Cl)c1)OCc1cccc(Oc2ccccc2)c1 [Compound 14],0.004,,,40,0.005,0.01,0.001
CC(C)C(=Nc1ccc(F)cc1F)OCc1cccc(Oc2ccc(F)cc2)c1 [Compound 209],0.0007,0.005,0.1,17,,> 0.01,0.001
CC(C)C(=Nc1ccc(F)c(Cl)c1)OCc1cccc(Oc2ccccc2)n1 [Compound 462],0.001,0.0025,0.04,7,,> 0.05,0.001
CCC(C)C(=Nc1ccc(F)c(Cl)c1)OCc1cccc(Oc2ccccc2)c1 (centres unmarked) [Compound 122],0.0007,,0.05,37,0.01,,> 0.05
CC(C)C(=Nc1ccc(F)c(Br)c1)OCc1cccc(Oc2ccc(F)cc2)c1 [Compound 253],0.00013,0.0005,> 0.1,10,,> 0.01,0.003
CC(C)C(=Nc1ccc(F)c(Cl)c1)OCc1cccc(Oc2ccc(F)c(F)c2)n1 [Compound 531],> 0.1,0.00037,> 0.1,5,,> 0.01,> 0.05
